From ChEMBL document CHEMBL1201862, “PubChem BioAssay data set” (2004)
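Method: 48-hour compound exposure of cells in 96-well plates, five concentrations, linear interpolation of endpoints. GI50: concentration for 50% inhibition of growth.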 The source made the active and inactive calls. Rule as the data show it: active = GI50 up to about 1.1 µM and inactive = higher.

Tests used:
Assay in all cases: growth of human tumour cells (NCI), 48 h
[1] = test system: SK-MEL-28
[2] = test system: SN12C
[3] = test system: DU-145
[4] = test system: SF-295
[5] = test system: NCI-H522
[6] = test system: HOP-92
[7] = test system: MDA-MB-231
[8] = test system: Malme-3M
[9] = test system: HCT-15
[10] = test system: HCC 2998
[11] = test system: RPMI-8226
[12] = test system: UACC-257
[13] = test system: OVCAR-4
[14] = test system: OVCAR-5
[15] = test system: SNB-75
[16] = test system: A498
[17] = test system: CAKI-1
[18] = test system: HL-60
[19] = test system: OVCAR-8
[20] = test system: Hs-578T

| Compound | GI50 [1] | GI50 [2] | GI50 [3] | GI50 [4] | GI50 [5] | GI50 [6] | GI50 [7] | GI50 [8] | GI50 [9] | GI50 [10] | GI50 [11] | GI50 [12] | GI50 [13] | GI50 [14] | GI50 [15] | GI50 [16] | GI50 [17] | GI50 [18] | GI50 [19] | GI50 [20] |
| --- | --- | --- | --- | --- | --- | --- | --- | --- | --- | --- | --- | --- | --- | --- | --- | --- | --- | --- | --- | --- |
| Nn1c(CCCCCCCCc2nnc(COc3c(O)ccc4ccccc34)n2N)nnc1COc1c(O)ccc2ccccc12 | > 100 µM (inactive) | > 100 µM (inactive) | > 100 µM (inactive) | > 100 µM (inactive) | > 100 µM (inactive) | > 100 µM (inactive) | > 100 µM (inactive) | > 100 µM (inactive) | > 100 µM | > 100 µM (inactive) | 63.1 µM (inactive) | > 100 µM (inactive) | 59.6 µM (inactive) | > 100 µM (inactive) | > 100 µM (inactive) | > 100 µM (inactive) | 27.2 µM (inactive) | – | – | – |
| O=C1/C(=C/c2ccco2)N=C(c2ccccc2)N1c1ccc(S(=O)(=O)Nc2nccs2)cc1 | – | > 100 µM (inactive) | > 100 µM (inactive) | > 100 µM (inactive) | 30.9 µM (inactive) | 73.8 µM (inactive) | > 100 µM (inactive) | > 100 µM (inactive) | 28.9 µM | > 100 µM (inactive) | 41.7 µM (inactive) | 27.6 µM (inactive) | 69.2 µM (inactive) | > 100 µM (inactive) | > 100 µM (inactive) | – | > 100 µM (inactive) | 89.9 µM (inactive) | 65.5 µM (inactive) | – |
| CC(C)Oc1cccc(N2C(NCCc3c[nH]c4ccccc34)=Nc3ccncc3S2(=O)=O)c1 | 8.43 µM (inactive) | > 100 µM (inactive) | 22.5 µM (inactive) | 20.7 µM (inactive) | 7.01 µM (inactive) | 8.45 µM (inactive) | – | 32.4 µM (inactive) | 4.98 µM | 24.4 µM (inactive) | 5.51 µM (inactive) | 9.53 µM (inactive) | 8 µM (inactive) | > 100 µM (inactive) | 8.05 µM (inactive) | 9.31 µM (inactive) | 42.1 µM (inactive) | 3.93 µM (inactive) | 57.4 µM (inactive) | 3.9 µM (inactive) |
| CC(C)(C)C1CCC2c3c([nH]c4ccccc34)C3C(=O)N(c4cccc([N+](=O)[O-])c4)C(=O)C3C2C1 (stereo not given) | 21 µM (inactive) | 7 µM (inactive) | 25.9 µM (inactive) | 53.7 µM (inactive) | 14.6 µM (inactive) | 61.5 µM (inactive) | 30.5 µM (inactive) | 23.2 µM (inactive) | 37.1 µM | 27.7 µM (inactive) | – | 22.5 µM (inactive) | 25.5 µM (inactive) | 52.2 µM (inactive) | 59.6 µM (inactive) | 41.2 µM (inactive) | 19.6 µM (inactive) | – | 25.7 µM (inactive) | – |
| COC1(CCO)CC=CCC1(CCO)OC (stereo not given) | > 100 µM (inactive) | > 100 µM (inactive) | > 100 µM (inactive) | > 100 µM (inactive) | > 100 µM (inactive) | > 100 µM (inactive) | – | > 100 µM (inactive) | > 100 µM | – | > 100 µM (inactive) | > 100 µM (inactive) | > 100 µM (inactive) | > 100 µM (inactive) | > 100 µM (inactive) | – | > 100 µM (inactive) | > 100 µM (inactive) | > 100 µM (inactive) | > 100 µM (inactive) |
| COc1c(O)cc(C(=O)O[C@@H]2Cc3c(O)cc(O)cc3O[C@@H]2c2cc(O)c(O)c(O)c2)cc1O | > 100 µM (inactive) | 19.7 µM (inactive) | 20.3 µM (inactive) | 20.3 µM (inactive) | 24.4 µM (inactive) | > 100 µM (inactive) | – | > 100 µM (inactive) | 26.5 µM | 97.1 µM (inactive) | 24.3 µM (inactive) | 53.3 µM (inactive) | 20.2 µM (inactive) | 39.4 µM (inactive) | – | 94.6 µM (inactive) | > 100 µM (inactive) | 19.7 µM (inactive) | 23.3 µM (inactive) | > 100 µM (inactive) |
